Measured values: ChEMBL document CHEMBL1137116, “Synthesis and structure-activity relationships of 1,5-diazaanthraquinones as antitumour compounds” (Bioorg Med Chem Lett, 2004)

Assays:
A549 = assay: Cytotoxic activity against A-549 (Human lung carcinoma) cell line; assay type: functional, cell-based
[1] = Cytotoxic activity of compound against MEL-28 (Human melanoma) cell line; assay type: functional; conditions: SK-MEL-28
HT-29 = assay: Cytotoxic activity of compound against HT-29 (Human colon carcinoma) cell line; assay type: functional, cell-based

SMILES | IC50 (A549) | IC50 [1] | IC50 (HT-29)
Cc1cc[n+](N(C)C)c2c1C(=O)c1nccc(Cl)c1C2=O | 330 nM | 330 nM | 1930 nM
O=C1c2cccnc2C(=O)c2cccnc21 | 4800 nM | 4800 nM | 4800 nM
Cc1ccnc2c1C(=O)c1c(C)ccnc1C2=O | 2100 nM | 2100 nM | 2100 nM
CCc1c(C)cnc2c1C(=O)c1c(ncc(C)c1CC)C2=O | 8500 nM | 8500 nM | 8500 nM
O=C1c2nccc(-c3ccccc3[N+](=O)[O-])c2C(=O)c2nccc(O)c21 | 7200 nM | 7200 nM | 7200 nM
CCc1cnc2c(c1)C(=O)c1ncc(CC)cc1C2=O | 190 nM | 380 nM | 1880 nM
Cc1ccnc2c1C(=O)c1nccc(C)c1C2=O | 500 nM | 1000 nM | 1000 nM
Cc1ccnc2c1C(=O)c1nccc(N(C)C)c1C2=O | 370 nM | 370 nM | 930 nM
CCc1cnc2c(c1)C(=O)c1cc(CC)cnc1C2=O | 450 nM | 790 nM | 1880 nM
CCc1c(C)cnc2c1C(=O)c1ncc(C)c(CC)c1C2=O | 3400 nM | 3400 nM | 3400 nM
Cc1cnc2c(c1)C(=O)c1nccc(Cl)c1C2=O | 30 nM | 30 nM | 40 nM
Cc1cnc2c(c1)C(=O)c1cc(C)cnc1C2=O | 210 nM | 210 nM | 500 nM
Cc1ccnc2c1C(=O)c1nccc(Cl)c1C2=O | 190 nM | 190 nM | 1930 nM
Cc1cnc2c(c1)C(=O)c1ncc(C)cc1C2=O | 40 nM | 40 nM | 420 nM
O=C1c2nccc(-c3ccccc3[N+](=O)[O-])c2C(=O)c2nccc(Cl)c21 | 30 nM | 30 nM | 270 nM
O=C1c2cccnc2C(=O)c2ncccc21 | 4800 nM | 4800 nM | 5700 nM
Cc1ccnc2c1C(=O)c1nc3c(cc1C2=O)CCCC3 | 4490 nM | 18000 nM | 18000 nM
COc1cccc2c1C(=O)c1c(O)c3c(c(O)c1C2=O)C[C@@](O)(C(=O)CO)C[C@@H]3O[C@H]1C[C@H](N)[C@H](O)[C@H](C)O1 [DOXORUBICIN] | 10 nM | 30 nM | 90 nM
